Non-standard residues stand in square brackets, D forms with d. Orn = NCCC[C@H](N)C(=O)O
The substances below were run on HDL in human plasma (assay: pre-beta HDL ELISA assay: remodeling HDL in human plasma in vitro). Conditions: pre-beta HDL ELISA.
Format: biochemical
Description: First, various cyclic peptides, including the majority of compounds shown in FIG. 2, were assessed for activities for remodeling HDL in human plasma in vitro. Unlike western blot which was used to generate data shown in FIG. 2, here a pre-beta HDL ELISA assay was used to measure pre-beta HDL levels. Results from the assay are shown in Table 1, which lists the peptides in the order of their activities in remodeling HDL.
“2 (cyclo([dW]L[dW]K[dD]Q[dE]K); SMILES CC(C)C[C@@H]1NC(=O)[C@@H](Cc2c[nH]c3ccccc23)NC(=O)[C@H](CCCCN)NC(=O)[C@@H](CCC(=O)O)NC(=O)[C@H](CCC(N)=O)NC(=O)[C@@H](CC(=O)O)NC(=O)[C@H](CCCCN)NC(=O)[C@@H](Cc2c[nH]c3ccccc23)NC1=O) [compound 2]” was tested, and the “Pre-beta HDL generated (normalized level)” value was 0.10. For “5 (cyclo([dF]W[dW]Y[dQ]H[dH]Q); SMILES NC(=O)CC[C@@H]1NC(=O)[C@@H](Cc2c[nH]cn2)NC(=O)[C@H](Cc2c[nH]cn2)NC(=O)[C@@H](CCC(N)=O)NC(=O)[C@H](Cc2ccc(O)cc2)NC(=O)[C@@H](Cc2c[nH]c3ccccc23)NC(=O)[C@H](Cc2c[nH]c3ccccc23)NC(=O)[C@@H](Cc2ccccc2)NC1=O) [compound 5]”, the “Pre-beta HDL generated (normalized level)” value was 1.29. “6 (cyclo(L[dW]L[dW]L[dR]K[dE]); SMILES CC(C)C[C@@H]1NC(=O)[C@@H](Cc2c[nH]c3ccccc23)NC(=O)[C@H](CC(C)C)NC(=O)[C@@H](Cc2c[nH]c3ccccc23)NC(=O)[C@H](CC(C)C)NC(=O)[C@@H](CCC(=O)O)NC(=O)[C@H](CCCCN)NC(=O)[C@@H](CCCNC(=N)N)NC1=O) [compound 6]” was tested, and the “Pre-beta HDL generated (normalized level)” value was 0.36. With “8 (cyclo([dW]L[dW]K[dD]N[dD]K); SMILES CC(C)C[C@@H]1NC(=O)[C@@H](Cc2c[nH]c3ccccc23)NC(=O)[C@H](CCCCN)NC(=O)[C@@H](CC(=O)O)NC(=O)[C@H](CC(N)=O)NC(=O)[C@@H](CC(=O)O)NC(=O)[C@H](CCCCN)NC(=O)[C@@H](Cc2c[nH]c3ccccc23)NC1=O) [compound 8]” the “Pre-beta HDL generated (normalized level)” value was 0.26. In the case of “9 (cyclo([dW]L[dW]R[dD]N[dD]K); SMILES CC(C)C[C@@H]1NC(=O)[C@@H](Cc2c[nH]c3ccccc23)NC(=O)[C@H](CCCCN)NC(=O)[C@@H](CC(=O)O)NC(=O)[C@H](CC(N)=O)NC(=O)[C@@H](CC(=O)O)NC(=O)[C@H](CCCNC(=N)N)NC(=O)[C@@H](Cc2c[nH]c3ccccc23)NC1=O) [compound 9]”, the “Pre-beta HDL generated (normalized level)” value is reported as 0.47. In the case of “10 (cyclo([dW]L[dW]K[dD]Q[dD]K); SMILES CC(C)C[C@@H]1NC(=O)[C@@H](Cc2c[nH]c3ccccc23)NC(=O)[C@H](CCCCN)NC(=O)[C@@H](CC(=O)O)NC(=O)[C@H](CCC(N)=O)NC(=O)[C@@H](CC(=O)O)NC(=O)[C@H](CCCCN)NC(=O)[C@@H](Cc2c[nH]c3ccccc23)NC1=O) [compound 10]”, the “Pre-beta HDL generated (normalized level)” value is reported as 0.12. For “12 (cyclo([dW]L[dW]H[dE]N[dE]K); SMILES CC(C)C[C@@H]1NC(=O)[C@@H](Cc2c[nH]c3ccccc23)NC(=O)[C@H](CCCCN)NC(=O)[C@@H](CCC(=O)O)NC(=O)[C@H](CC(N)=O)NC(=O)[C@@H](CCC(=O)O)NC(=O)[C@H](Cc2c[nH]cn2)NC(=O)[C@@H](Cc2c[nH]c3ccccc23)NC1=O) [compound 12]”, the “Pre-beta HDL generated (normalized level)” value was 0.07. For “13 (cyclo([dW]L[dW][Orn][dE]Q[dE][Orn]); SMILES CC(C)C[C@@H]1NC(=O)[C@@H](Cc2c[nH]c3ccccc23)NC(=O)[C@H](CCCN)NC(=O)[C@@H](CCC(=O)O)NC(=O)[C@H](CCC(N)=O)NC(=O)[C@@H](CCC(=O)O)NC(=O)[C@H](CCCN)NC(=O)[C@@H](Cc2c[nH]c3ccccc23)NC1=O) [compound 13]”, the “Pre-beta HDL generated (normalized level)” value was 0.46. In the case of “15 (cyclo(Y[dL]W[dY]K[dH]A[dE]); SMILES CC(C)C[C@H]1NC(=O)[C@H](Cc2ccc(O)cc2)NC(=O)[C@@H](CCC(=O)O)NC(=O)[C@H](C)NC(=O)[C@@H](Cc2c[nH]cn2)NC(=O)[C@H](CCCCN)NC(=O)[C@@H](Cc2ccc(O)cc2)NC(=O)[C@H](Cc2c[nH]c3ccccc23)NC1=O) [compound 15]”, the “Pre-beta HDL generated (normalized level)” value is reported as 0.51. For “16 (cyclo(Y[dW]E[dL]Y[dS]K[dQ]); also: 2nd residue stated as DL-residue) [compound 16]”, the “Pre-beta HDL generated (normalized level)” value was 0.09. For “17 (cyclo(Y[dW]D[dS]K[dH]); SMILES NCCCC[C@@H]1NC(=O)[C@@H](CO)NC(=O)[C@H](CC(=O)O)NC(=O)[C@@H](Cc2c[nH]c3ccccc23)NC(=O)[C@H](Cc2ccc(O)cc2)NC(=O)[C@@H](Cc2c[nH]cn2)NC1=O) [compound 17]”, the “Pre-beta HDL generated (normalized level)” value was 0.08.
